We go through 10 substances from patent US7998940B2, “Aptamers to von Willebrand factor and their use as thrombotic disease therapeutics” (Archemix Corp., priority 2004, dated 2011).

Read-outs that look alike come from different tables or passages of the source. Oligonucleotides are written 5' to 3', each unit as a sugar letter and its base; * is a phosphorothioate linkage, no mark a phosphodiester; rarer units and linkages stand in square brackets, end groups in braces. Plain capitals give the bases only. [invdT] = inverted (3'-3') thymidine; d = 2'-deoxy (DNA); r = 2'-OH (RNA)

Data set [1] concerns full length human vWF (SEQ ID NO 7). As to the kind of experiment: dot blot KD determination and extent of binding, full length human vWF.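 For all read-outs here: dot blot binding of aptamers to full length human vWF across a protein titration, incubated 30 minutes at room temperature in 1x DPBS with BSA.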 The following applies: for Kd: read-out: Full length human vWF KD.
Data set [2] relates to rabbit vWF A1 domain (SEQ ID NO 6). As to the kind of experiment: dot blot KD determination, rabbit vWF A1 domain. Type of data set: binding.
Experimental: A 12 point protein titration was used in the dot blot assay (300 nM, 100 nM, 30 nM, 10 nM, 3 nM, 1 nM, 300 pM, 100 pM, 30 pM, 10 pM, 3 pM, 0 pM) in 1×DPBS plus 0.1 mg/mL BSA at room temperature for 30 minutes.
For data set [3], the system named is full length human vWF binding to lyophilized platelets. As to the kind of experiment: Full length human von Willebrand Factor platelet binding assay (FACS). Type of data set: cell-based. The note with it: for Inhibition of full length hVWF binding in FACS assay, IC50 range: both bounds in nM. A digest of the protocol: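 Aptamer titrations (0.1–1000 nM) pre-incubated with 5 nM full-length human vWF, then added to lyophilized platelets plus botrocetin for 15 min at 37 °C in PBS/0.5% BSA. Bound vWF detected by anti-vWF then FITC secondary antibody via flow cytometry MFI; % inhibition versus no-aptamer binding fitted for IC50.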

In data set [4] the test system is rabbit vWF domain A1 binding to lyophilized platelets. Description: Rabbit von Willebrand Factor domain A1 platelet binding assay (FACS). Type of data set: cell-based. As for the experimental part: Botrocetin induces the binding of the A1 domain of vWF to platelets, as well as the full length protein. It was determined by the inventors that 6-Histidine-tagged rabbit A1 domain vWF purified protein could be induced to bind to human lyophilized platelets with botrocetin. Rabbit A1 binding to platelets is measured with an anti-poly-His antibody followed by incubation with a phycoerythrin conjugated secondary antibody. The degree of binding can be quantified by flow cytometric analysis. The ability of aptamers to block the binding of rabbit A1 to human fixed platelets was correlated with decreased fluorescence signal.
The ability of aptamers of the invention to block rabbit vWF domain A1 binding to lyophilized platelets was also assessed by flow cytometric analysis. Titrations of aptamers (zero, 0.1 nM to 1000 nM) were preincubated briefly with 4 nM of rabbit A1 vWF in FACS buffer (PBS plus 0.5% bovine serum albumin) at room temperature in a volume of 50 uL. Another 50 uL containing 5 uL of lyophilized platelets plus 1 uL of 0.1 U/uL of botrocetin in FACS buffer was added to aptamer/vWF. This reaction was allowed to proceed for 15 minutes at 37 degrees C. after which 200 uL of FACS buffer was added. Platelets were collected by a 6 minute spin at 1470 RCF and the supernatant was discarded. The pellets were resuspended in 100 uL of FACS buffer containing a 1:200 dilution of anti-Penta-HIS-biotin conjugate antibody and were incubated at room temperature for 30 minutes. After the dilution with 200 uL of FACS buffer, the platelets were spun at 1470 RCF for 6 minutes, and the supernatant was discarded. The pellets were resuspended in a 1:100 solution of anti-IgG-PE antibody and were incubated in the dark for 30 minutes at room temperature. The entire 100 uL was diluted into 200 uL of FACS buffer and analyzed immediately by flow cytometric analysis in the FACSCAN. Contaminating debris was eliminated from the analysis by drawing a gate around the population of single and aggregated platelets and collecting data from 10000 events. Median fluorescent intensity (“MedFI”) readings (which are generally equivalent to the MFI readings, described in Example 3a above, for comparative purposes) were quantified for each sample analyzed by flow cytometry. Background MedFI was subtracted from all data points. Percent inhibition was reported by calculating the percent value of binding of […] to platelets in the presence of aptamer at a given concentration relative to binding in the absence of any aptamer (see FIG. 7). IC50 values were determined by fitting the percent inhibition of vWF binding to platelets as a function of aptamer concentration to the equation: % inhibition=% inhibitionmax/(1+IC50/aptamer conc.)

Data set [5] deals with botrocetin induced platelet aggregation. As to the kind of experiment: Inhibition of botrocetin induced platelet aggregation (BIPA) in human PRP. Type of data set: cell-based. The note with it: for ≦200 nM aptamer gives >90% blocking in BIPA at 6 minutes: botrocetin induced platelet aggregation. As for the experimental part: In platelet rich plasma isolated from fresh human blood, botrocetin induces platelet aggregation via vWF. Platelet aggregate formation can be measured optically as an increase in % light transmittance on a Chronolog Model 490-4D Aggregometer because aggregation of platelets clarifies the plasma. Aptamers of the invention were analyzed for their ability to inhibit botrocetin induced platelet aggregation (“BIPA”) in human blood. An aptamer of the invention was considered to be active if it could prevent aggregate formation for six minutes post botrocetin addition.
In order to determine the activity of aptamers on live human platelets, BIPA assays were done using freshly prepared platelet rich plasma. Blood was obtained from healthy human donors who had not taken NSAIDS for at least five days. […] Collected blood was pooled into 15 mL conical tubes and was spun at 200 g for 20 minutes. The turbid, yellow layer of platelet rich plasma (“PRP”) was withdrawn from the tubes, pooled, and set aside at room temperature. The remaining blood was spun at 2500 g for ten minutes. The clarified layer of plasma, known as platelet poor plasma (“PPP”), was withdrawn and set aside at room temperature. PRP was aliquoted into cuvettes containing stir bars at a volume of 470 uL. A sample of 500 uL of PPP was aliquoted into a cuvette and placed in the PPP reference cell of the platelet aggregometer. Samples of PRP were prewarmed at 37 degrees C. in the platelet aggregometer for 3-5 minutes before being used in BIPA assays. First, the concentration of botrocetin needed to induce platelet aggregation for each individual donor was determined by titration. This concentration of botrocetin was used for the remainder of the experiment. Next, aptamer was assayed by adding titrations of aptamer (zero, 1 nM to 1000 nM) to prewarmed PRP for one minute, followed by addition of botrocetin. With platelet aggregation, an increase in amplitude of light transmission is seen (FIG. 8). The concentration at which platelet aggregation is blocked at 90% or greater after 6 minutes is reported in the final column of Table 26.

In data set [6] the target is human vWF A1 domain (SEQ ID NO 5) (Homo sapiens, UniProt P04275, T1381A). As to the kind of experiment: dot blot KD determination, human vWF A1 domain. The note with it: for Kd: read-out: Human vWF A1 domain KD.
Experimental: For KD determination, aptamers transcripts were purified on 10% denaturing polyacrylamide gels, 5′ end labeled with γ-^32P ATP.
For KD determination, aptamers were purified on denaturing polyacrylamide gels and 5′-end labeled with γ-^32P ATP. A 6 point protein titration of human vWF A1 domain (SEQ ID NO 5) was used in the dot blot assay (333 nM, 100 nM, 33 nM, 10 nM, 3 nM, 0 nM) in 1×DPBS plus 0.1 mg/mL BSA at room temperature for 30 minutes. KD values were calculated by fitting the equation y=(max/(1+K/protein))+yint using KaleidaGraph (KaleidaGraph v. 3.51, Synergy Software).
KD values were calculated by fitting the equation y=(max/(1+K/protein))+yint using KaleidaGraph (KaleidaGraph v. 3.51, Synergy Software).
All minimer sequences were transcribed, gel-purified on 15% denaturing polyacrylamide gels, 5-^32 end-labeled with γ^32P ATP, and then desalted using two Centri-Spin 10 columns (Princeton Separations Cat. #CS-101, Adelphia, N.J.). For KD determination, minimer transcripts were tested for direct binding to full length human vWF (SEQ ID NO 7), human vWF A1 domain (SEQ ID NO 5), and rabbit vWF A1 domain (SEQ ID NO 6) using an 8 point protein titration from 0-300 nM (3 fold dilutions) in 1× Dulbecco's PBS containing 0.1 mg/mL BSA (in a final volume of 50 uL) for 30 minutes at room temperature and then applied to a nitrocellulose and nylon filter sandwich in a dot blot apparatus (Schleicher and Schuell, Keene, N.H.). KD values were calculated by fitting the equation y=(max/(1+K/protein))+yint using KaleidaGraph (KaleidaGraph v. 3.51, Synergy Software).
All minimer DNA sequences were chemically synthesized, 5-^32P end-labeled with γ-^32P ATP, and then desalted using two Centri-Spin 10 columns (Princeton Separations, Cat. #CS-101, Adelphia, N.J.). […] KD values were calculated by fitting the equation y=(max/(1+K/protein))+yint using KaleidaGraph (KaleidaGraph v. 3.51, Synergy Software).
[7] abbreviates: DNA 2 minimers, 9 point protein titration.
[8] abbreviates: 5 nM full length human vWF, lyophilized platelets, botrocetin, read-out: Inhibition of full length hVWF binding in FACS assay, Average IC50.
[9] abbreviates: 5 nM full length human vWF, lyophilized platelets, botrocetin, units in the cell: lower bound pM, upper bound nM, read-out: Inhibition of full length hVWF binding in FACS assay, IC50 range.
[10] abbreviates: 4 nM rabbit A1 vWF, lyophilized platelets, botrocetin, read-out: Inhibition of rabbit VWF A1 domain binding in FACS assay, Average IC50.
Where [11] appears, read: 4 nM rabbit A1 vWF, lyophilized platelets, botrocetin, units in the cell: lower bound pM, upper bound nM, read-out: Inhibition of rabbit VWF A1 domain binding in FACS assay, IC50 range.
[12] abbreviates: rRdY minimers, 8 point titration 0-300 nM.
Where [13] appears, read: 5 nM full length human vWF, lyophilized platelets, botrocetin.
Where [14] appears, read: DNA 1 minimers, competition dot blot, 10 nM protein.

Sequence of human vWF A1 domain (SEQ ID NO 5) (P04275 with tags, fused parts or gaps T1381A): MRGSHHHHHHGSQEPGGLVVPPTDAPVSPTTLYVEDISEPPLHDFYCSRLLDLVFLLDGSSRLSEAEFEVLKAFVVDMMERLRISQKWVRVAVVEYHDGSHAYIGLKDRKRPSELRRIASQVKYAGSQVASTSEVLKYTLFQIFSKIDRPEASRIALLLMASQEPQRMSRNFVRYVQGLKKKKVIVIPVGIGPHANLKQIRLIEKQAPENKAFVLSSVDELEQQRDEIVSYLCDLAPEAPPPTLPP
Sequence of rabbit vWF domain A1 binding to lyophilized platelets (as listed by the source): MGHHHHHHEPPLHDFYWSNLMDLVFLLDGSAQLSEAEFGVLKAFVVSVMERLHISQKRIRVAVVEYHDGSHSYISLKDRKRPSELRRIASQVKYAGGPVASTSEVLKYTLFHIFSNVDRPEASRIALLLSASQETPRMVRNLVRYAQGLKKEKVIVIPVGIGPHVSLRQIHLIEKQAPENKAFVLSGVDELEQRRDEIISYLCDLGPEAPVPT
Sequence of rabbit vWF A1 domain (SEQ ID NO 6) (as listed by the source): as above

For “GGCGTGCAGTGCCTATTCTAGGCCGTGCGGTGCCTCCGTCACGCC-3T (DNA, [invdT] at 3' end, backbone not given here) [ARC 1027, minimized DNA aptamer]”, the Kd in data set [1] (setting [7]) amounted to 0.8 nM; in data set [2] (setting [7]), 4.6 nM. The IC50 in data set [3] (setting [8]) is 1500 pM; in data set [3] (setting [9]), 208 to 4200 pM; in data set [4] (setting [10]), 2000 pM; in data set [4] (setting [11]), 462 to 4200 pM. In addition, the “≦200 nM aptamer gives >90% blocking in BIPA at 6 minutes” value (shortened to “≦200 nM aptamer gives >90% blocking”) in data set [5] is recorded as “yes”.
As to “GGCCACACGACATTGGCGGGCGAGAGCCACGCATGGCC (rGrGdCdCrAdCrAdCrGrAdCrAdTdTrGrGdCrGrGrGdCrGrArGrArGdCdCrAdCrGdCrAdTrGrGdCdC) [SEQ ID NO 198]”, the figures for the Kd in data set [1] (setting [12]), in data set [2] (setting [12]) and in data set [6] (setting [12]) were 3 ± 0.6 nM, 11 ± 2 nM and 5 ± 2 nM, respectively. Moreover, the IC50 worked out at 20600 pM in data set [3] (setting [8]) and 12600 pM in data set [4] (setting [10]).
Take “GGCGTGCAGTGCCT-[PEG]-AGGCCGTGCGG-[PEG]-CCGTCACGCC-3T (DNA GGCGTGCAGTGCCTAGGCCGTGCGGCCGTCACGCCT; chemistry not fully specified) [ARC1031, minimized DNA aptamer]”: the “Full length human vWF KD” value in data set [1] (setting [7]) was “No binding”. The “Rabbit vWF A1 domain KD” value in data set [2] (setting [7]) is reported as “No binding”. In data set [3] (setting [13]), the “Inhibition of full length hVWF binding in FACS assay, IC50 range” value was “no activity”.
On to “GGCGTGCAGTGCC-[PEG]-GGCCGTGCGGTGCCTCCGTCACGCC-3T (DNA GGCGTGCAGTGCCGGCCGTGCGGTGCCTCCGTCACGCCT; chemistry not fully specified) [ARC1029, minimized DNA aptamer]”, for which the Kd in data set [1] (setting [7]) stood at 1.4 ± 0.2 nM; in data set [2] (setting [7]) it was 6.5 ± 1.5 nM. For the same substance, the results for the 50% inhibitory concentration (IC50) in data set [3] (setting [8]), in data set [3] (setting [9]) and in data set [4] (setting [10]) were 609 pM, 333 to 1100 pM and 754 pM, respectively. In addition, the “inhibition of binding of human vWF to lyophilized human platelets” value in data set [3] (in words, FACS, FIG. 7) was “inhibits binding”. The “inhibition of binding of rabbit vWF A1 domain to lyophilized human platelets” value in data set [4] (in words, FACS, FIG. 7) is “inhibits binding”. In addition, the “≦200 nM aptamer gives >90% blocking” value in data set [5] is recorded as “yes”. In addition, the “inhibition of botrocetin induced platelet aggregation” value in data set [5] (in words, human PRP) was “inhibiting botrocetin induced platelet aggregation”.
On to “GGAGCCACGGGGTGGGTAGACGGCGGGTATGTGGCTCC (rGrGrArGdCdCrAdCrGrGrGrGdTrGrGrGdTrArGrAdCrGrGdCrGrGrGdTrAdTrGdTrGrGdCdTdCdC) [SEQ ID NO 180]”, for which the Kd in data set [1] (setting [12]) was 1 nM; in data set [2] (setting [12]), 14 nM; in data set [6] (setting [12]) it was 11 nM. Further, the 50% inhibitory concentration (IC50) in data set [3] (setting [8]) is 2000 pM; in data set [3] (setting [9]), 731 to 3800 pM; in data set [4] (setting [10]), 9300 pM. Moreover, the “≦200 nM aptamer gives >90% blocking” value in data set [5] is recorded as “yes”.
Take “GGAGCCACACGACATTGGCGGGCGAGAGCCACGCATGGCTCC (rGrGrArGdCdCrAdCrAdCrGrAdCrAdTdTrGrGdCrGrGrGdCrGrArGrArGdCdCrAdCrGdCrAdTrGrGdCdTdCdC) [SEQ ID NO 192]”: the Kd in data set [1] (setting [12]) is 2 ± 0.2 nM; in data set [2] (setting [12]) it was 8 ± 1 nM; in data set [6] (setting [12]), 4 ± 1 nM. Also, the half-maximal inhibitory concentration (IC50) in data set [3] (setting [8]) is 2600 pM; in data set [4] (setting [10]), 2200 pM. For the same substance, in data set [5], the “≦200 nM aptamer gives >90% blocking” value was “yes”.
As for “GGCGTGCAGTGCCTATTCTAGGCCGTGCGG-[PEG]-CCGTCACGCC-3T (DNA GGCGTGCAGTGCCTATTCTAGGCCGTGCGGCCGTCACGCCT; chemistry not fully specified) [ARC1030, minimized DNA aptamer]”, the “Full length human vWF KD” value in data set [1] (setting [7]) was “No binding”. Further, the “Rabbit vWF A1 domain KD” value in data set [2] (setting [7]) was “No binding”. Besides, the “Inhibition of full length hVWF binding in FACS assay, IC50 range” value in data set [3] (setting [13]) was “no activity”.
For the substance “dGCGTGCAGTGCCT-[PEG]-AGGCCGTGCGGTGCCTCCGTCACGCC-3T (DNA GCGTGCAGTGCCTAGGCCGTGCGGTGCCTCCGTCACGCCT; chemistry not fully specified) [ARC1028, minimized DNA aptamer]”, the figures for the Kd in data set [1] (setting [7]) and in data set [2] (setting [7]) were 1.1 nM and 3.8 nM, respectively. Also, the IC50 in data set [3] (setting [8]) was 1200 pM; in data set [3] (setting [9]), 473 to 2700 pM; in data set [4] (setting [10]), 1500 pM; in data set [4] (setting [11]), 526 to 2700 pM. In addition, the “≦200 nM aptamer gives >90% blocking” value in data set [5] was “yes”.
Turning to “ATGAGAGTGCTGGTGGATTGCTCAGGTCTGCTGGCTGCTTACTCTCAT (DNA, backbone not given here) [ARC845]”, in data set [1] (DNA 1 minimers), the “Full length human vWF KD” value was “No binding”. The Kd in data set [2] (DNA 1 minimers) was determined as 56 nM. In data set [3] (setting [13]), the “Inhibition of full length hVWF binding in FACS assay, Average IC50” value is listed as “no activity” and the “Inhibition of full length hVWF binding in FACS assay, IC50 range” value is on record as “no activity”. In data set [4] (4 nM rabbit A1 vWF, lyophilized platelets, botrocetin), the “Inhibition of rabbit VWF A1 domain binding in FACS assay, Average IC50” value was “no activity”. Also, the “Inhibition of rabbit VWF A1 domain binding in FACS assay, IC50 range” value in data set [4] (4 nM rabbit A1 vWF, lyophilized platelets, botrocetin, both bounds in nM) was “no activity”. In addition, the “≦200 nM aptamer gives >90% blocking” value in data set [5] is listed as “no activity”. For the same substance, in data set [6] (setting [14]), the Kd amounted to 10 nM.
As to “CCAGCGGAATGAGAATGCTGATGGATTGCTCAGGTCTGCTGG (DNA, backbone not given here) [SEQ ID NO 204]”, in data set [2] (DNA 1 minimers), the “Rabbit vWF A1 domain KD” value is “No binding”. Further, the “Human vWF A1 domain KD” value in data set [6] (setting [14]) was “No binding”.
